The text below walks through data of paper PMC6345859, “Copper amine oxidases catalyze the oxidative deamination and hydrolysis of cyclic imines” (Nature Communications, 2019).

One data set relates to C=C1CCCCN1. Put plainly: purified protein. To be noted: 20 mM Hepes-NaOH pH 7.0, 28 °C, O2 co-substrate, named as the enamine tautomer, treated in the paper as a cyclic imine.
Data set [1] has as its system COc1ccc2c3c([nH]c2c1)C(C)=NCC3. Put plainly: purified protein. To be noted: 20 mM Hepes-NaOH pH 7.0, 28 °C, O2 co-substrate.
The target of data set [2] is T1, ECAO (copper amine oxidase from E. coli) (Escherichia coli, UniProt P46883).
T1 construct: gene tynA; recombinant, pET24a(+)-tynA in E. coli BL21-CodonPlus(DE3)-RIL, purified; TPQ cofactor
T1 sequence (P46883 31-757): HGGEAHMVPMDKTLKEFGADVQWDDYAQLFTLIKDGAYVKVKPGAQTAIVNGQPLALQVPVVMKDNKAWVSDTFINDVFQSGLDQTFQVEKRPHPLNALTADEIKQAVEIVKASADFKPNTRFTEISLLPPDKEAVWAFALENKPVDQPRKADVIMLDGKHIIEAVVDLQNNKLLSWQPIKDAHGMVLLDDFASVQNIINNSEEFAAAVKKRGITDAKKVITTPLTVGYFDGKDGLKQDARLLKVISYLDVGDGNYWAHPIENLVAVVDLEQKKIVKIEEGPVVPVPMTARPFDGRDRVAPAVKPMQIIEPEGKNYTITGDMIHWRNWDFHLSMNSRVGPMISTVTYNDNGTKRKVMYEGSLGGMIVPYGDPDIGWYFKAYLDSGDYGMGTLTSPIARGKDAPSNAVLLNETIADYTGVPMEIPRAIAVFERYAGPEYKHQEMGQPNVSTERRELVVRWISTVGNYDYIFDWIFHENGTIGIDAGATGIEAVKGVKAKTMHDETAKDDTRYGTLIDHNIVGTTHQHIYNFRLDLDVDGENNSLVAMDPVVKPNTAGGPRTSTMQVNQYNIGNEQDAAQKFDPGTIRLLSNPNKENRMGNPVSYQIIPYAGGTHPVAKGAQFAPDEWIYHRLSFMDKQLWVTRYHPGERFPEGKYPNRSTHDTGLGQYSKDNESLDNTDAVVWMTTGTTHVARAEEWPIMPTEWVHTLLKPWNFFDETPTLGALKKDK
The data set can be described thus: LC/MS or HPLC product detection. The data set is classed as biochemical. To be noted: 0.5 mg/mL enzyme.

The target of data set [3] is T2, HarA (harmaline-metabolizing enzyme, copper amine oxidase) (Arthrobacter sp., UniProt A0A5A4PV14).
T2 construct: purified from strain C-4A, or recombinant from E. coli BL21-CodonPlus(DE3)-RIL (pETDuet-harA); 71 kDa subunit, 130 kDa native, homodimer; TPQ cofactor from Y379, Cu2+
T2 sequence (A0A5A4PV14 1-649): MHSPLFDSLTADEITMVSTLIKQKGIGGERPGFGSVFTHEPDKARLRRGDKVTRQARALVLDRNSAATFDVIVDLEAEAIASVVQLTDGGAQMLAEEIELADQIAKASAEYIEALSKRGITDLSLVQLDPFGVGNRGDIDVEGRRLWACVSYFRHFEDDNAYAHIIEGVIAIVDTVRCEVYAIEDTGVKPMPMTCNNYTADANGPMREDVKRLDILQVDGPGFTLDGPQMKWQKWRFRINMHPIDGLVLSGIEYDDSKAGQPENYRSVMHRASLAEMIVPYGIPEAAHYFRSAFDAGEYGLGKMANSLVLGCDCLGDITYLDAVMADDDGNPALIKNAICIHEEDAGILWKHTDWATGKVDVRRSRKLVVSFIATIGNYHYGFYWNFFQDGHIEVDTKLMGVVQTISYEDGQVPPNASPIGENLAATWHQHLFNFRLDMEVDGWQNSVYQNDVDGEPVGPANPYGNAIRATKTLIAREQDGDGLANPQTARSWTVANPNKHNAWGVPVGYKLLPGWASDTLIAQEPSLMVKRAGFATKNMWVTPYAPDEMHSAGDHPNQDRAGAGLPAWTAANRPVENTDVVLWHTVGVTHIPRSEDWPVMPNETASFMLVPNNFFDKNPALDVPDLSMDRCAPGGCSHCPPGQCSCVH
The data set can be described thus: LC/MS/MS of chymotryptic nonapeptide; phenylhydrazine titration. The conditions noted are these: covalent; adduct with TPQ cofactor (Y379); […] Tris-HCl pH […] digest. The data set is classed as binding.

The target of data set [4] is T3, HarA (harmaline-metabolizing enzyme, copper amine oxidase) (Arthrobacter sp., UniProt A0A5A4PV14, D295E).
T3 construct: purified from strain C-4A, or recombinant from E. coli BL21-CodonPlus(DE3)-RIL (pETDuet-harA); 71 kDa subunit, 130 kDa native, homodimer; TPQ cofactor from Y379, Cu2+
T3 sequence (A0A5A4PV14 1-649 D295E): T2 sequence (A0A5A4PV14 1-649) with D295E
Put plainly: LC/MS product detection. The data set is classed as biochemical. To be noted: […] Hepes-NaOH pH […] °C.

Data set [5] addresses T2, HarA (harmaline-metabolizing enzyme, copper amine oxidase). Put plainly: resonance Raman and anaerobic UV-vis spectroscopy. The data set is classed as binding. The conditions noted are these: covalent imine adduct with TPQ, difference against Y379F.

Residue numbers refer to the chain shown, from its start.

Broadly, the Km is the substrate concentration at which the rate is half of its maximum. With “HarA (harmaline-metabolizing enzyme, copper amine oxidase) (Arthrobacter sp.)”, the Km was 1700 µM with C=C1CCCCN1 and 439 µM in data set [1].

`COc1ccc2c3c([nH]c2c1)C(C)=NCC3` [harmaline]: the “LC/MS or HPLC product detection” value in data set [2] is reported as “The purified ECAO was able to convert harmaline into 2-AIMA”. For the compound `NNc1ccccc1` [phenylhydrazine], the “LC/MS/MS of chymotryptic nonapeptide; phenylhydrazine titration” value in data set [3] is on record as “TPQ was also detected as a phenylhydrazine adduct in the nonapeptide”.

On to `NCCc1c[nH]c2ccccc12` [tryptamine], for which the LC/MS product detection entry in data set [4] is on record as “D295E mutant catalyzed deamination of tryptamine, although the activity was less than that of wild-type”. With `NCc1ccccc1` [BA, benzylamine], the “resonance Raman and anaerobic UV-vis spectroscopy” value in data set [5] was “we observed a benzylamine adduct, which would be the inactive deprotonated imine intermediate, in HarA”.
